Results published in patent publication US20240016882A1, “AUTOPHAGY-INHIBITING PEPTIDE AND ORGANIC ACID SALT THEREOF ADDRESSING ISSUES OF VASCULAR PERMEABILITY” (BIOTEMPT B.V., priority 2020, published 2024).
Read-outs that look alike come from different tables or passages of the source. Ends that are not written are not given here. Peptide text beside a SMILES is read from it.

Assays:
mTOR kinases = mTOR kinases (Homo sapiens, UniProt P42345); settings: cited from earlier work
autophagy = settings: cited from earlier work
[1] = Solubility / aggregation points of AQGV salts in 0.9% NaCl
Description: (§1) At first attempts were made to mix a solution of the free base and an acid in order to achieve a concentrated DMSO solution of the salt and subsequently dilute this in water in order to determine solubility. […] It was decided to determine the solubility of the salts required by dilution of known amount of salts (not soluble) till a clear solution is obtained.

p38 MAPK = experiment: Phosphorylation status after fMLP challenge of hPBMCs: p38 MAPK; assay type: cell-based, human; settings: 1 μM fMLP
Method: (§2) Human-derived peripheral blood monocytes as a prototype cell-system for FPR-expression were isolated from healthy volunteers (hPBMCs) according to routine procedures^1 at University Medical Centre Groningen, The Netherlands. Subsequently PMBC were incubated with the Biotempt-supplied peptide AQGV (SEQ ID NO: 5) (which was freshly prepared as a 20 […] stock solution in bidistilled water) or treated with the vehicle for 10 min. Then hPMBCs were challenged with 1 μM fMLP for various time periods (see results FIGS. 4a, b, 4c and 4d). Each stimulus 0, 30, 60, 300 and 600 seconds at two concentrations AQGV (SEQ ID NO: 5), 20 ng/ml and 50 ng/ml and in six-fold. Following stimulation with fMLP for the indicated time periods, the phosphorylation status of p38MAPK, JNK, PKB, P42/p44MAPK/ERK1,2 and STAT3 was analysed 3. STAT3 was undetectable, JNK and P42/p44MAPK/ERK1,2.

PKB (also known as AKT) = experiment: Phosphorylation status after fMLP challenge of hPBMCs: PKB (AKT); assay type: cell-based, human; settings: 1 μM fMLP
Method: as §2

human cells = settings: AJ Meijer et al Amino Acids 2015; cited from earlier work
JNK = experiment: Phosphorylation status after fMLP challenge of hPBMCs: JNK; assay type: cell-based, human; settings: hPBMC, 1 μM fMLP, 0-600 seconds
Method: as §2

P42/p44MAPK/ERK1,2 = experiment: Phosphorylation status after fMLP challenge of hPBMCs: P42/p44MAPK/ERK1,2; assay type: cell-based, human; settings: hPBMC, 1 μM fMLP, 0-600 seconds
Method: as §2

[2] = Previous first in human study of AQGV; assay type: in vivo; settings: up to i.v. doses of 30 mg/kg three times a day (90 mg/kg daily) for three days
[3] = Dose-escalating phase I studies: pharmacokinetics, safety and tolerability of AQGV; assay type: in vivo, humans (healthy subjects)
Method: Three double-blind, randomized, placebo-controlled, dose-escalating phase I studies in healthy subjects were conducted to evaluate safety, tolerability and pharmacokinetics of AQGV (SEQ ID NO: 5). In the first single dose study, 32 subjects were assigned to four single dosage groups (1, 3, 10 or 30 mg/kg). In the second multiple dosage study, 24 subjects were assigned to three dosing groups (10, 20 or 30 mg/kg) and received study medication thrice a day for three days. In the third continuous dosing study, 24 subjects were assigned to three dosing groups (15, 30 or 90 mg/kg/hour) to receive study medication by 2-hour continuous iv infusion. Pharmacokinetics (PK), safety and tolerability assessments were performed up to 14-days.

[4] = Description: as §1
[5] = cited from earlier work
[6] = set-up: species or system male CD-1 mice; settings: mouse, in vivo
Method: The present study, which was conducted by TNO Biosciences, Utrechtseweg, Netherlands, was designed to provide data on the distribution and metabolism of [14C]-AQGV (“AQGV” disclosed as SEQ ID NO: 5) (Ala-Gln-[1-^14C]Gly-Val (“AQGV” disclosed as SEQ ID NO: 5)) in male CD-1 mice following a single intravenous dose of 50 mg/kg. To this end, mice were sacrificed at […], and 6 and 24 hours after administration of radiolabeled AQGV (SEQ ID NO: 5), counts in various tissues were determined, and the radioactivity present in the urine and plasma were analyzed by HPLC.

In the case of `CC(C)[C@H](N)C(=O)O` [L-Valine], the “Literature based activity mTOR kinases” value (mTOR kinases) is listed as “activate”.
For `N=C(N)NCCC[C@H](N)C(=O)O` [L-Arginine], the “Literature based activity mTOR kinases” value (mTOR kinases) is given as “activate” and the “Literature based activity autophagy” value (autophagy) is given as “DOWN”.
In the case of `CC(C)[C@H](NC(=O)CNC(=O)[C@H](CCC(N)=O)NC(=O)[C@H](C)N)C(=O)O` [AQGV-citrate] (H-AQGV-OH), the “solubility compared to AQGV-Ac” value ([1]; 0.9% NaCl) is reported as “Higher solubility”, the “appearance / behaviour of the concentrated solution” value (shortened to “appearance / behaviour”) ([1]; 0.9% NaCl, listed as Citric acid) is reported as “does not crystallize or aggregate but tend to form a highly viscous solution” and the “appearance / behaviour” value ([1]; 0.9% NaCl, listed as citric acid) is reported as “remains clear but got very thick/viscous”. The total amount dissolved ([1]; in 0.5 mL 0.9% NaCl) was 2.75 mmol.
With `Nc1ncnc2c1ncn2[C@@H]1O[C@H](COP(=O)(O)O)[C@@H](O)[C@H]1O` [adenosine-monophosphate] the “appearance / behaviour” value ([1]; 0.9% NaCl) was “no clear solution could be obtained”.
For `CSCC[C@H](NC=O)C(=O)N[C@@H](CC(C)C)C(=O)N[C@@H](Cc1ccccc1)C(=O)O` [fMLP, N-formyl-methionyl-leucyl-phenylalanine, reference compound], the “changes in phosphorylation status of p38 MAPK caused by FPR-activation” value (p38 MAPK; p<0.05 from 60 to 600 sec) was “rapidly induced and significant” and the “changes in phosphorylation status of PKB caused by FPR-activation” value (PKB (also known as AKT); p<0.05 at 600 sec) was “rapidly induced and significant”.
In the case of `CSCC[C@H](N)C(=O)O` [L-Methionine], the “Literature based activity mTOR kinases” value (mTOR kinases) is given as “partial”.
For `NC(=O)CC[C@H](N)C(=O)O` [L-Glutamine], the “Literature based activity mTOR kinases” value (mTOR kinases) is listed as “activate”, the “autophagic effects on human cells” value (human cells) is listed as “most prominent autophagic effects” and the “Literature based activity autophagy” value (autophagy) is listed as “DOWN”.
For `N[C@@H](Cc1c[nH]cn1)C(=O)O` [L-Histidine], the “Literature based activity mTOR kinases” value (mTOR kinases) is listed as “down”.
In the case of `NCCCC[C@H](N)C(=O)O` [L-Lysine], the “Literature based activity mTOR kinases” value (mTOR kinases) is listed as “down”.
For `CC(C)[C@H](NC(=O)CNC(=O)[C@H](CCC(N)=O)NC(=O)[C@H](C)N)C(=O)O` [AQGV] (H-AQGV-OH), the “effect on JNK phosphorylation status” value (JNK) was “not affected throughout”, the “effect on P42/p44MAPK/ERK1,2 phosphorylation status” value (P42/p44MAPK/ERK1,2) was “not affected throughout” and the “effect on p38 MAPK kinase activated changes” value (p38 MAPK; hPBMC) was “reduces p38 MAPK kinase activated changes”. The “time after FPR-stimulation at which effects on p38 MAPK are detected” value (p38 MAPK; hPBMC, 20 and 50 ng/ml AQGV) was 30 s, the “duration of effects on p38 signalling” value (p38 MAPK; hPBMC, 600 seconds tested) was 600 s and the tolerability [2] was “well tolerated”. The clearance ([3]; human, in vivo, iv, range over phase I studies, read-out: clearance rate) was 433 to 1020 mL/min/kg, the half-life ([3]; human, in vivo, iv, range over phase I studies, read-out: estimated half life time) was 2 to 22 min and the Vd ([3]; human, in vivo, iv, range over phase I studies, read-out: volume of distribution) was 4 to 33 L/kg. The “more than proportional increases in exposure to the highest dosages” value ([3]; i.v., range over phase I studies) was 126-137%, the tolerability ([3]; i.v., single, multiple and continuous dosing up to 90 mg/kg/hour) was “well tolerated” and the serious adverse events ([3]; phase I studies) was “no serious adverse events”. The “subjects reporting AEs with a possible relationship to study drug” value ([3]; subjects receiving AQGV) was 3 subjects, the “effect on PI3K/AKT/mTOR activated induced changes” value (PKB (also known as AKT); hPBMC) was “reduces PI3K/AKT/mTOR activated induced changes” and the “duration of effects on PKB-mediated signalling” value (PKB (also known as AKT); hPBMC, 600 seconds tested) was 600 s. The “time after FPR-stimulation at which effects on PKB(AKT) follow” value (PKB (also known as AKT); hPBMC, bi-phasic pattern) was 300 s.
For `Nc1ncnc2c1ncn2[C@@H]1O[C@H](CO)[C@@H](O)[C@H]1O` [adenosine], the “appearance / behaviour” value ([1]; 0.9% NaCl) was “no clear solution could be obtained” and the “solubility in DMSO” value [4] was “did not dissolve in DMSO at all”.
In the case of VRLIVAVRIWRR-NH2 [IDR-1018], the aggregation ([5]; prepared in sodium acetate) is given as “did not induce any appreciable aggregation”, the aggregation ([5]; solutions containing large polyatomic anions: phosphate, benzoate, nitrate, citrate) is given as “suffer strongly from aggregation” and the aggregation ([5]; solutions containing sulfate, bicarbonate, chloride, iodide anions) is given as “comparatively small amount of aggregation”. For the same molecule, the “ion concentration at which aggregation was observed” value ([5]; sulfate, bicarbonate, chloride, iodide anions) was “above 200 mM”.
For `O=C(O)[C@@H]1CCCN1` [L-Proline], the “Literature based activity mTOR kinases” value (mTOR kinases) is given as “activate” and the “autophagic effects on human cells” value (human cells) is given as “most prominent autophagic effects”.
For `C[C@@H](O)[C@H](N)C(=O)O` [L-Threonine], the “Literature based activity mTOR kinases” value (mTOR kinases) is given as “down”.
For `CC(C)C[C@H](N)C(=O)O` [L-Leucine], the “Literature based activity mTOR kinases” value (mTOR kinases) is given as “activate”, the “autophagic effects on human cells” value (human cells) is given as “most prominent autophagic effects” and the “Literature based activity autophagy” value (autophagy) is given as “DOWN”.
In the case of Ala-Gln-[1-^14C]Gly-Val [[14C]-AQGV], the “administered radioactivity exhaled as volatiles” value [6] is reported as “About 50%” and the “time to full hydrolysis of the peptide after administration” value [6] is reported as 15 min.
For `CC[C@H](C)[C@H](N)C(=O)O` [L-Isoleucine], the “Literature based activity mTOR kinases” value (mTOR kinases) is given as “activate” and the “Literature based activity autophagy” value (autophagy) is given as “DOWN”.
For `NCC(=O)O` [L-Glycine], the “Literature based activity autophagy” value (autophagy) is listed as “DOWN”.
For `C[C@H](N)C(=O)O` [L-Alanine], the “autophagic effects on human cells” value (human cells) is listed as “most prominent autophagic effects” and the “Literature based activity autophagy” value (autophagy) is listed as “DOWN”.
